Source: PubChem BioAssay (NCI)
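Five concentrations, 48 hours, 96-well plates. GI50: concentration for 50% inhibition of growth. TGI is the concentration that stops growth completely.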

How the values were obtained:
Experiment in all cases: NCI tumour cell line growth inhibition, 48 h
[1] = tested on: HL-60(TB) leukemia
[2] = tested on: 786-0 renal
[3] = tested on: HOP-92 NSCLC
[4] = tested on: SW-620 colon
[5] = tested on: A498 renal
[6] = tested on: SNB-75 CNS
[7] = tested on: A549 NSCLC
[8] = tested on: SR leukemia
[9] = tested on: LOX IMVI melanoma
[10] = tested on: SF-268 CNS

Compound | GI50 [1] [µM] | TGI [1] [µM] | GI50 [2] [µM] | TGI [2] [µM] | GI50 [3] [µM] | TGI [3] [µM] | GI50 [4] [µM] | TGI [4] [µM] | GI50 [5] [µM] | TGI [5] [µM] | GI50 [6] [µM] | TGI [6] [µM] | GI50 [7] [µM] | TGI [7] [µM] | GI50 [8] [µM] | TGI [8] [µM] | GI50 [9] [µM] | TGI [9] [µM] | GI50 [10] [µM] | TGI [10] [µM]
C[C@@H](CS(C)(=O)=O)Nc1ncc2cc(Oc3ccc(F)cc3F)c(=O)n(C)c2n1 | > 25 | > 25 | > 25 | > 25 | > 6.75 | > 25 | > 25 | > 25 | > 25 | > 25 | > 25 | > 25 | > 25 | > 25 | > 25 | > 25 | > 25 | > 25 | > 25 | > 25
Cc1nc2c(nc1C)C(=O)c1ccccc1C2=O | – | 13.7 | – | 47.1 | – | 45 | – | 10.1 | – | 8.98 | – | 6.15 | – | 3.41 | – | 28.2 | – | 7.11 | – | 46.3
O=C(CCl)N1c2ccccc2Oc2ccc3ccccc3c21 | 1.45 | 4.86 | 2.05 | 3.56 | 1.59 | 3.31 | 0.373 | 1.48 | 2.44 | 6.97 | 1.47 | 2.82 | 1.9 | 3.81 | 0.305 | 1.06 | 0.347 | 1.41 | 1.52 | 2.94
COc1cc2nc(-c3ccc(C(F)(F)F)cc3)cc(OCCCN3CCC(O)CC3)c2cc1OC | 13.9 | 31.9 | 4.72 | 19.8 | 1.68 | 9.64 | 3.53 | 14.8 | 2.37 | 10.3 | 2.58 | 10.8 | 1.65 | 18.4 | 0.274 | 16.6 | 0.19 | 0.447 | 5.76 | 24.7
COc1cc(C(=O)/C=C/c2sc(Cl)nc2Cl)cc(OC)c1OC | 1.82 | 4.45 | 1.84 | 3.42 | 1.6 | 3.19 | 1.68 | 3.45 | 7.62 | 20.5 | 1.66 | 3.8 | 3.18 | 11.8 | 0.384 | 3.23 | 1.58 | 2.97 | 1.79 | 3.77
NC(CSC(c1ccccc1)(c1ccccc1)c1ccc2c(c1)OCO2)C(=O)O (stereo not given) | 0.313 | 0.836 | 2.96 | > 89.4 | 0.75 | 36.9 | 0.396 | > 100 | 0.518 | 30.5 | 0.283 | 7.06 | 0.635 | > 100 | 0.285 | 0.868 | 0.577 | > 43.6 | 0.82 | > 77.6
COc1ccc(NC(=O)c2cc(OC)cc(OC)c2)cc1 | – | 39.1 | – | > 100 | – | > 100 | – | > 100 | – | > 100 | – | > 83.6 | – | > 100 | – | > 100 | – | > 100 | – | > 100
